Test results taken from patent US9889101B2, “Therapeutic treatment of cancer and dysplasia of the cervix or vagina using estrogen antagonists” (Wisconsin Alumni Research Foundation, priority 2009, dated 2018).

Tests used:
ER = details: undefined if not mentioned; cited from earlier work
[1] = test system: CVX1 human cervical cancer cells (ERα-positive); assay: Subcutaneous CVX1 tumors in nude mice; assay type: in vivo; details: estrogen-treated nude mice, fulvestrant 7.5 mg s.c. twice a week, two-week treatment period
[2] = test system: CaSki cervical cancer cell line (ERα-negative); assay: Subcutaneous CaSki tumors in nude mice; assay type: in vivo, human; details: estrogen-treated nude mice, with fulvestrant 7.5 mg s.c. twice a week
[3] = test system: nontransgenic female mice; assay: Uterine wet weight after one week of fulvestrant (dose finding); details: two injections day 0 and day 3, uteri weighed day 7, normalized to body weight
Source text: The indicated dose was given to nontransgenic female mice by two injections at day 0 and day 3, and uteri were harvested and weighed at day 7. Uterine wet weight was normalized to body weight.

[4] = test system: K14E6/K14E7 double transgenic mice; assay: Prevention of cervical/vaginal cancer in E2-treated K14E6/K14E7 mice (preventive fulvestrant)
Procedure: Mice. […] Experimental mice were generated by crossing K14E7 hemizygote and K14E6 homozygote mice. Female progenies were genotyped by PCR and a slow-releasing 17β-estradiol (E2) tablet (0.05 mg/60 days) (Innovative Research of America) was inserted subcutaneously under the dorsal skin every two months beginning at 4-6 weeks of age. After 6-month treatment with E2, one group of mice was sacrificed immediately to evaluate cancer phenotypes (6M E2 group), another group was maintained for another month without further treatment (6M E2+1M without fulvestrant group), and the third group was treated with fulvestrant for a month (6M E2+1M with fulvestrant group).
Fulvestrant treatment. Faslodex (50 mg/ml, human formulation of intramuscular injection of fulvestrant) was purchased from Astra Zeneca. Mice were subcutaneously injected with 0.15 ml (equivalent to 7.5 mg of fulvestrant) of Faslodex twice a week for a month (total of 9 injections).

[5] = test system: K14E6/K14E7 double transgenic mice; assay: Treatment of pre-existing cervical/vaginal cancer and dysplasia in estrogen-treated K14E6/K14E7 mice
Procedure: Experimental mice were generated by crossing K14E7 hemizygote and K14E6 homozygote mice. Female progenies were genotyped by PCR and a slow-releasing 17β-estradiol (E2) tablet (0.05 mg/60 days) (Innovative Research of America) was inserted subcutaneously under the dorsal skin every two months beginning at 4-6 weeks of age. After 6-month treatment with E2, one group of mice was sacrificed immediately to evaluate cancer phenotypes (6M E2 group), another group was maintained for another month without further treatment (6M E2+1M without fulvestrant group), and the third group was treated with fulvestrant for a month (6M E2+1M with fulvestrant group).
Faslodex (50 mg/ml, human formulation of intramuscular injection of fulvestrant) was purchased from Astra Zeneca. Mice were subcutaneously injected with 0.15 ml (equivalent to 7.5 mg of fulvestrant) of Faslodex twice a week for a month (total of 9 injections).
Mice were subsequently injected with fulvestrant as described in Materials and Methods. Reproductive tracts were harvested, fixed in para-formaldehyde (PFA), and embedded in paraffin. Every tenth 5 μM section was stained with H&E and histopathologically scored to identify the worst grade of cervical/vaginal disease present in each animal. […] EVISTA® tablets were purchased from Eli Lilly and Company, which are human formulation of raloxifene (60 mg/tablet). Tablets were resuspended in phosphate buffered saline at a final concentration of 10 mg/ml. K14E6/K14E7 double transgenic mice were treated with E2 for 6 months and subsequently with raloxifene for a month by intraperitoneally injecting them with 0.15 ml of raloxifene suspension (equivalent to 1.5 mg) 5 days a week.

[6] = 6M E2 + preventive fulvestrant (one month at the three-month time point), six-month endpoint
[7] = 6M E2 + preventive fulvestrant, six-month endpoint
[8] = 6M E2 + 1M fulvestrant 7.5 mg s.c. twice a week, 13 mice
[9] = 6M estrogen then fulvestrant for two weeks
[10] = 6M E2 + 1M raloxifene 1.5 mg i.p. 5 days a week

## COc1ccc(-c2sc3cc(O)ccc3c2Oc2ccc(OCCN3CCCCC3)cc2)cc1 [Arzoxifene]
ER
  Effect in cervix, vagina and endometrium: antagonist in endometrium

## CC/C(=C(/c1ccc(OCCN(C)C)cc1)c1cccc(O)c1)c1ccccc1 [Droloxifene]
ER
  Effect in cervix, vagina and endometrium: agonist in endometrium

## CC1=C(c2ccc(OC(=O)C(C)(C)C)cc2)[C@H](c2ccc(OCCN3CCCCC3)cc2)Oc2cc(OC(=O)C(C)(C)C)ccc21 [EM-800]
ER
  Effect in cervix, vagina and endometrium: antagonist in endometrium

## CC/C(=C(\c1ccc(I)cc1)c1ccc(OCCN2CCCC2)cc1)c1ccccc1 [Idoxifene]
ER
  Effect in cervix, vagina and endometrium: agonist in endometrium

## Oc1ccc2c(c1)CC[C@H](c1ccccc1)[C@@H]2c1ccc(OCCN2CCCC2)cc1 [Lasofoxifene]
ER
  Effect in cervix, vagina and endometrium: neutral in endometrium

## COc1ccc2c(c1)OC(C)(C)[C@@H](c1ccccc1)[C@@H]2c1ccc(OCCN2CCCC2)cc1 [Levormeloxifene]
ER
  Effect in cervix, vagina and endometrium: agonist in endometrium

## COc1ccc2c(c1)OC(C)(C)C(c1ccccc1)C2c1ccc(OCCN2CCCC2)cc1 (centres unmarked) [Ormeloxifene]
ER
  Effect in cervix, vagina and endometrium: antagonist in endometrium

## Cc1c(-c2ccc(O)cc2)n(Cc2ccc(OCCN3CCCCC3)cc2)c2ccc(O)cc12 [Pipendoxifene]
ER
  Effect in cervix, vagina and endometrium: antagonist in endometrium

## CC/C(=C(\c1ccccc1)c1ccc(OCCN(C)C)cc1)c1ccccc1 [Tamoxifen]
ER
  Effect in cervix, vagina and endometrium: agonist in cervix, vagina,

## CN(C)CCOc1ccc(/C(=C(/CCCl)c2ccccc2)c2ccccc2)cc1 [Toremifene]
ER
  Effect in cervix, vagina and endometrium: agonist in endometrium

## C[C@]12CC[C@@H]3c4ccc(O)cc4C[C@@H](CCCCCCCCC[S+]([O-])CCCC(F)(F)C(F)(F)F)[C@H]3[C@@H]1CC[C@@H]2O (some centres unmarked) [fulvestrant]
[1]
  CVX1 tumor growth: did not grow at all
[2]
  CaSki tumor growth: 4.7 fold
ER
  Effect in cervix, vagina and endometrium: antagonist in cervix, vagina,
[3]; fulvestrant 10 mg/week
  decrease in uterine wet weight: 50%
[3]; fulvestrant 15 mg/week
  reduction in uterine wet weight: 70%
[4]; [6]
  # mice with no dysplasia or cancer, Cervix: 6
  # mice with no dysplasia or cancer, Vagina: 6
[4]; [7]
  # mice w/ dysplasia only, CIN1: 0 (0)
  # mice w/ dysplasia only, CIN2: 0 (0)
  # mice w/ dysplasia only, CIN3: 0 (0)
  # mice w/ dysplasia only, VIN1: 0 (0)
  # mice w/ dysplasia only, VIN2: 0 (0)
  # mice w/ dysplasia only, VIN3: 0 (0)
  # mice w/cancer and dysplasia, Cervix: 0 (0)
  # mice w/cancer and dysplasia, Vagina: 0 (0)
  mice w/cancer and dysplasia (%), Cervix: 0 (0) %
  mice w/cancer and dysplasia (%), Vagina: 0 (0) %
[4]; fulvestrant for one month at the three-month time point of E2 treatment
  cervical disease at the six-month endpoint: neither CIN nor cervical cancer
[5]; [8]
  number of mice with CIN1 as worst state (cervix): 0 (0)
  number of mice with CIN2 as worst state (cervix): 0 (0)
  number of mice with CIN3 as worst state (cervix): 0 (0)
  number of mice with VIN1 as worst state (vagina): 0 (0)
  number of mice with VIN2 as worst state (vagina): 0 (0)
  number of mice with VIN3 as worst state (vagina): 0 (0)
  number of mice with cervical cancer: 1 (1)
  number of mice with no dysplasia (worst state of disease): 11
  number of mice with vaginal cancer: 1 (1)
[5]; 6M E2 + 1M with fulvestrant
  Average size of the largest tumor: 0.02 ± 0.05^ mm^2
  Tumor multiplicity, Cervix: 0.2 ± 0.5
  Tumor multiplicity, Vagina: 0.1 ± 0.3
[5]; 6M estrogen then fulvestrant for 1 month
  dysplastic lesions (CIN and VIN) in lower reproductive tract: absence of any grade of dysplastic lesions
[5]; [9]
  cancers in the lower reproductive tracts: still had cancers
  dysplastic lesions in lower reproductive tract: absent
[5]; fulvestrant-treated mice
  thickness of lower reproductive tract epithelia: 2-3 layers of cells
[5]; of 13 mice, one cervical, one vaginal cancer
  mice in which cancers persisted after one-month fulvestrant: 2

## O=C(c1ccc(OCCN2CCCCC2)cc1)c1c(-c2ccc(O)cc2)sc2cc(O)ccc12 [raloxifene]
ER
  Effect in cervix, vagina and endometrium: neutral in endometrium
[5]; [10]
  # mice w/ dysplasia only, CIN1: 0 (0)
  # mice w/ dysplasia only, CIN2: 0 (0)
  # mice w/ dysplasia only, CIN3: 0
  # mice w/ dysplasia only, VIN1: 0 (0)
  # mice w/ dysplasia only, VIN2: 0 (0)
  # mice w/ dysplasia only, VIN3: 1
  # mice w/cancer and dysplasia, Cervix: 0 (0)
  # mice w/cancer and dysplasia, Vagina: 0 (0)
  # mice with no dysplasia or cancer, Cervix: 7
  # mice with no dysplasia or cancer, Vagina: 6
  mice w/cancer and dysplasia (%), Cervix: 0 (0) %
  mice w/cancer and dysplasia (%), Vagina: 0 (0) %
[5]; 6M E2 then raloxifene 1.5 mg i.p. 5 days a week for a month
  regression of cervical and vaginal disease including cancers: complete regression
